Measured values: patent US6083973A, “Methods for inhibiting mucin secretion using RAR α selective antagonists” (Syntex (U.S.A.) Inc., priority 1999, dated 2000)

What was measured:
[1] = system: RXR receptors; settings: cited from earlier work
[2] = system: MUC2; test: MUC2 gene transactivation in NHBE cells, RT-PCR; type: cell-based, human; settings: for MUC2 gene induction: 1×10^-7 M, Example 1; for MUC2 gene expression, compound alone: Example 3, antagonist 1×10^-6 M or agonist 1×10^-7 M
Method: (§1) Transactivation of mucin genes in normal primary human bronchial epithelial cells (NHBE) was performed as described by Gray et al. Am. J. Respir. Biol., 14:104-112 (1996). Primary human airway epithelial cells were cultured on porous Transwell membranes (Corning/Costar) in defined media in the absence of all-trans retinoic acid (ATRA) for 7 days. After seven days, fresh media±ATRA or selective retinoid, was added to the basal culture compartment to create an air-liquid interface (ALI). ATRA and/or selective retinoids were used at a concentration or 1×10^-7 M. The selective retinoids used were: Compound X (RARα selective agonist), RXR agonist (SRI 11217) and anti-AP1 retinoid (SRI 11302). After seven additional days of culture the media was harvested for analysis of secreted mucin gene product using specific ELISA as previously described (Gray et al). The cell layer was lysed using a guanidinium-based buffer (TRIZOL/Sigma) for RNA extraction and analysis. Amplification of MUC2 and MUC5AC RNA was performed by standard RT-PCR using appropriate selective primer and mimics pairs (Guzman et al., Am. J. Physiol. 271 (Lung Cell Mol Physiol.15): L1023-L1028 (1996) and PCR products were detected in ethedium bromide stained agarose gels.
(§2) Transactivation of mucin genes in NHBE was performed as described above with the exception that media was supplemented with RAR alpha (RARα), beta (RARβ), or gamma (RARγ)-selective retinoids on days 7 through day 14. The RAR alpha (RARα), beta (RARβ), or gamma (RARγ)-selective retinoids were compounds X, Y and CD-437 respectively.
(§3) Transactivation of mucin genes in NHBE was performed as described above. On days 7 through day 14 cells were cultured with 1×10^-6 M RARα antagonist, Compound Z, alone or in combination with 1×10^-7 M ATRA or RARα selective agonist, Compound X. The effects on mucin gene transactivation and expression were determined by RT-PCR and ELISA as described above. RARα selective antagonist, Compound Z, had no effect on MUC2 or MUC5AC gene expression.

[3] = system: MUC5AC; test: MUC5AC gene transactivation in NHBE cells, RT-PCR; type: cell-based, human; settings: for MUC5AC gene induction: 1×10^-7 M, Example 1; for MUC5AC gene expression, compound alone: Example 3, antagonist 1×10^-6 M or agonist 1×10^-7 M
Method: as §1, §2, §3

[4] = system: primary human bronchial epithelium; test: Mucin protein secretion from NHBE cells, ELISA; type: cell-based; settings: for mucin secretion: 1×10^-7 M, FIG. 1(b)
Method: as §1
Corresponding mucin protein secretion data are shown in FIG. 1(b) as ELISA data representing results from separate samples run in triplicate. Data presented as mean±sem. The mucin protein secretion data were consistent with gene induction results.
as §3

[5] = system: LPS-induced mucin hypersecretion in rats; test: Mucous hypersecretion in rat model of LPS-induced lung inflammation; type: in vivo; settings: for mucous hypersecretion in rats: 10 mg/kg daily starting 72 hours prior to LPS challenge
Method: (§4) All-trans retinoic acid (ATRA) was evaluated for its effects on mucous hypersecretion in the rat model of endotoxin/lipopolysacharide (LPS)-induced lung inflammation (Steiger et al. J. Am. Respir. Cell Mol. Biol., 12:307-314 (1995)). Animals were divided into treatment groups of approximately six. Lung inflammation was induced in male Long Evans rats by repeated instillation of LPS (LPS derived from Pseudomonas aeriginos; Sigma Chemical) 400 μg/Kg/dose/day for three days. ATRA was dissolved in DMSO (20 mg/ml) and stored at -20 C. Fresh working stocks were prepared fresh daily by dilution in PBS to a final concentration of 2 mg/ml. Animals treated with ATRA (2 mg/kg ip) were dosed once daily by intraperitoneal injection, starting 24 hours prior to the first LPS challenge. Two control groups were included in the study, treatment with vehicle (DMSO/PBS) followed by LPS and treatment with ATRA alone. Animals were sacrificed 24 hours after the last LPS challenge by exsanguination under deep anesthesia.
The lungs were lavaged with phosphate buffered saline (2×5 ml) to wash out mucous layer. The lavage fluid (BAL) was centrifuged for 10 min at 500×g and the cell-free supernate was frozen and stored -20° C. until analyzed for secreted mucin by Alcian-blue/PAS dot blot assay to determine relative contribution of neutral and acidic mucins. Standard curves were generated using bovine intestinal mucins (Sigma) TYPE 1 (Alc. blue/acidic mucins) and TYPE II (PAS+/neutral mucin). Each sample was assayed in triplicate and data presented as […] total mucin. (FIG. 4b)
The effect of RARα selective antagonists Ia and Ib on mucous hypersecretion in the rat and mouse models of LPS-induced lung inflammation was evaluated according to the procedure of Example 4. Animals were treated with compound (10 mg/kg) or vehicle daily starting 72 hours prior to LPS challenge.

[6] = system: goblet cell hyperplasia in rats; test: LPS-induced goblet cell hyperplasia, morphometric analysis; type: in vivo, rat; settings: ATRA 2 mg/kg ip once daily
Method: as §4
After lavage the lungs were perfused with 10% neutral buffered formalin by intratracheal instillation at a constant rate (5 ml at 1 ml/min). The left lobe was excised and immersed in fixative for 24 hours prior to processing. Standard methods were used to prepare 5 μm paraffin sections. […]

[7] = system: mucin gene expression in human epithelial cells; test: Mucin gene expression (MUC2 and MUC5AC) in human epithelial cells; type: cell-based
Method: as §1, §3

[8] = system: RAR subtypes (α, β, and γ); settings: cited from earlier work
[9] = system: NIH-292 cells; test: LPS-induced mucin gene expression in NIH-292 cells, real time RT-PCR; type: cell-based, human; settings: added 24 hours prior to 10 μg/ml LPS
Method: (§5) An in vitro assay was established to screen retinoid-based compounds for their effects on LPS-induced mucin gene expression using a continuous human lung epithelial cell line, NIH-292. NIH-292 cells were cultured in standard T-75 tissue culture flasks in DMEM/F12 media containing 10% fetal bovine serum (FBS). Upon confluence the media was changed to defined medium Optimem (Sigma) supplemented with 1% FBS 24 hours prior to challenge with 10 μg/ml LPS (P. aeriginos, Sigma Chemical). RAR selective antagonist, Compound Z, was added 24 hours prior to LPS challenge. ATRA and specific retinoids were prepared as DMSO stocks. Cells were harvested 6 or 24 hours after LPS challenge using a guanidinium-basedbuffer (TRIZOL/Sigma) for RNA extraction and analysis. Amplification of β-actin, MUC1, MUC2 and MUC5AC specific RNA was performed by using an automated fluorescent detection method for quantitation of real time RT-PCR (TAQMAN, Applied Biosystems/Perkin Elmer). Standard curves were generated for each of the relevant mucin RNAs using control plasmid. Analysis was performed in triplicate from duplicate samples.

[10] = system: MUC5AC; test: LPS-stimulated MUC5AC mRNA transcription, dose response; type: cell-based; settings: Homo sapiens, normalized to glyceraldehyde phosphate 3-dehydrogenase, read-out: inhibition of MUC5AC gene transcription IC50
Method: as §5
Cells were stimulated with LPS in the presence or absence of Ia. MUC5AC specific mRNA was measured and is graphed normalized relative to glyceraldehyde phosphate 3-dehydrogenase control.

[11] = system: LPS-induced mucous hypersecretion in mice; test: Mucous hypersecretion in mouse model of LPS-induced lung inflammation; type: in vivo; settings: 10 mg/kg daily starting 72 hours prior to LPS challenge
Method: as §4, with “Two control groups were included in the study, treatment with vehicle (DMSO/PBS) followed by LPS and treatment with ATRA alone. Animals were sacrificed 24 hours after the last LPS challenge by exsanguination under deep anesthesia.” left out
The lungs were lavaged with phosphate buffered saline (2×5 ml) to wash out mucous layer. The lavage fluid (BAL) was centrifuged for 10 min at 500×g and the cell-free supernate was frozen and stored -20° C. until analyzed for secreted mucin by Alcian-blue/PAS dot blot assay to determine relative contribution of neutral and acidic mucins. […]
The effect of RARα selective antagonists Ia and Ib on mucous hypersecretion in the rat and mouse models of LPS-induced lung inflammation was evaluated according to the procedure of Example 4. […]

[12] = system: MUC2; settings: G. An, et al.; cited from earlier work
[13] = 1×10^-6 M antagonist with 1×10^-7 M ATRA or Compound X
[14] = even at the highest dose, 1×10^-6 M, Example 2

CC1=C(/C=C/C(C)=C\C=C\C(C)=C\C(=O)O)C(C)(C)CCC1 [9-cis isomer of retinoic acid]
binding to RXR receptors [1]: bind instead to the 9-cis isomer of retinoic acid

CC1=C(/C=C/C(C)=C/C=C/C(C)=C/C(=O)O)C(C)(C)CCC1 [ATRA, All-trans retinoic acid]
MUC2 gene induction [2]: induce both MUC2 and MUC5AC gene induction
MUC2 gene expression, compound alone [2]: potent inducers
MUC5AC gene induction [3]: induce both MUC2 and MUC5AC gene induction
MUC5AC gene expression, compound alone [3]: potent inducers
mucin secretion [4]: increase in mucin secretion
LPS-induced mucin hypersecretion in rats ([5]; ATRA 2 mg/kg ip once daily): enhancement
LPS-induced goblet cell hyperplasia [6]: enhancement
mucin gene expression, specifically MUC2 and MUC5AC ([7]; retinoid agonists): transactivates mucin gene expression
binding to the three RAR subtypes [8]: binds with approximately equal affinity to all the three RAR subtypes
binding to RXR receptors [1]: do not bind to all-trans retinoic acid

CCCCCCCOc1cc2c(cc1/C(C)=C/c1ccc(C(=O)O)cc1)C(C)(C)CCS2(=O)=O [Compound Ia]
inhibition of ATRA- or Compound X-induced MUC2 [2, 13]: completely inhibited
MUC2 gene expression, compound alone [2]: no effect
inhibition of ATRA- or Compound X-induced MUC5AC [3, 13]: completely inhibited
MUC5AC gene expression, compound alone [3]: no effect
inhibition of ATRA- or Compound X-induced mucin protein secretion ([4]; 1×10^-6 M antagonist with 1×10^-7 M ATRA or Compound X, FIG. 3b): completely inhibited
LPS induced mucin gene expression [9]: inhibit LPS induced mucin gene expression
IC50 [10]: < 10 nM
mucous hypersecretion in rats [5]: reduced the amount of mucous hypersecretion relative to vehicle
mucous hypersecretion in mice [11]: reduced the amount of mucous hypersecretion relative to vehicle
inhibition of retinoid induced mucin gene expression [7]: inhibited

CCCCCCCOc1cc2c(cc1/C(C)=C/C=C/C(C)=C/C(=O)O)C(C)(C)CCS2(=O)=O [Compound Ib]
mucous hypersecretion in rats [5]: reduced the amount of mucous hypersecretion relative to vehicle
mucous hypersecretion in mice [11]: reduced the amount of mucous hypersecretion relative to vehicle
inhibition of retinoid induced mucin gene expression [7]: inhibited

CC1(C)CCC(C)(C)c2cc(C(=O)Nc3ccc(C(=O)O)cc3)ccc21 [Compound X]
MUC2 gene induction [2]: induce both MUC2 and MUC5AC gene induction
MUC2 gene activation ([2]; 1×10^-9 M, Example 2): most potent inducer
MUC2 gene expression, compound alone [2]: potent inducers
Induction of MUC2 [2, 14]: minimal
MUC5AC gene induction [3]: induce both MUC2 and MUC5AC gene induction
MUC5AC gene activation ([3]; 1×10^-9 M, Example 2): most potent inducer
MUC5AC gene expression, compound alone [3]: potent inducers
Induction of MUC5AC [3, 14]: minimal
mucin secretion [4]: increase in mucin secretion

CC(C)=C(c1ccc(C(=O)O)cc1)c1ccc2c(c1)C(C)(C)CCC2(C)C [SRI 11217, 4-[1-(5,6,7,8-tetrahydro-5,5,8,8,-tetramethyl-2-naphthalenyl)-2-methylpropenyl]-benzoic acid]
MUC2 gene induction [2]: no effect on induction of either gene
MUC5AC gene induction [3]: no effect on induction of either gene

CC1=C(/C=C/C(C)=C/C=C/C(C)=C/CO)C(C)(C)CCC1 [retinol]
expression of the MUC2 gene [12]: down-regulated
